Data as given in PubChem BioAssay (NCI).
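Where inhibition never reached the appropriate level, the endpoint shown equals the highest concentration tested. Otherwise, values were interpolated linearly from a five-concentration, 48-hour dose response in 96-well plates. GI50 is the concentration that inhibits growth by half. The concentration for full growth arrest is given as TGI.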

How the values were obtained:
Experiment in all cases: NCI tumour cell line growth inhibition, 48 h
SNB-75 CNS = system: SNB-75 CNS
HOP-62 NSCLC = system: HOP-62 NSCLC
RPMI-8226 leukemia = system: RPMI-8226 leukemia
T-47D breast = system: T-47D breast
A549 NSCLC = system: A549 NSCLC
LOX IMVI melanoma = system: LOX IMVI melanoma
HOP-92 NSCLC = system: HOP-92 NSCLC
MALME-3M melanoma = system: MALME-3M melanoma
SR leukemia = system: SR leukemia
UO-31 renal = system: UO-31 renal
NCI-H226 lung = system: NCI-H226 lung
K-562 leukemia = system: K-562 leukemia
HT29 colon = system: HT29 colon
MOLT-4 leukemia = system: MOLT-4 leukemia
RXF 393 renal = system: RXF 393 renal
SW-620 colon = system: SW-620 colon
EKVX NSCLC = system: EKVX NSCLC
SF-268 CNS = system: SF-268 CNS
ACHN renal = system: ACHN renal
NCI/ADR-RES ovarian = system: NCI/ADR-RES ovarian
SN12C renal = system: SN12C renal
MCF7 breast = system: MCF7 breast
HCT-15 colon = system: HCT-15 colon
OVCAR-3 ovarian = system: OVCAR-3 ovarian
TK-10 renal = system: TK-10 renal
SK-MEL-28 melanoma = system: SK-MEL-28 melanoma
DU-145 prostate = system: DU-145 prostate
SNB-19 CNS = system: SNB-19 CNS
OVCAR-4 ovarian = system: OVCAR-4 ovarian
SF-539 CNS = system: SF-539 CNS
HS 578T breast = system: HS 578T breast
MDA-MB-435 = system: MDA-MB-435
HCT-116 colon = system: HCT-116 colon
MDA-MB-231 breast = system: MDA-MB-231 breast
NCI-H522 lung = system: NCI-H522 lung
U251 CNS = system: U251 CNS
NCI-H23 lung = system: NCI-H23 lung
786-0 renal = system: 786-0 renal
OVCAR-5 ovarian = system: OVCAR-5 ovarian
PC-3 prostate = system: PC-3 prostate
UACC-62 melanoma = system: UACC-62 melanoma
M14 melanoma = system: M14 melanoma
KM12 colon = system: KM12 colon
UACC-257 melanoma = system: UACC-257 melanoma
HL-60(TB) leukemia = system: HL-60(TB) leukemia
SF-295 CNS = system: SF-295 CNS
SK-MEL-5 melanoma = system: SK-MEL-5 melanoma
NCI-H460 lung = system: NCI-H460 lung
SK-OV-3 ovarian = system: SK-OV-3 ovarian
SK-MEL-2 melanoma = system: SK-MEL-2 melanoma
IGROV1 ovarian = system: IGROV1 ovarian
BT-549 breast = system: BT-549 breast
CAKI-1 renal = system: CAKI-1 renal
OVCAR-8 ovarian = system: OVCAR-8 ovarian
COLO 205 colon = system: COLO 205 colon
CCRF-CEM leukemia = system: CCRF-CEM leukemia
A498 renal = system: A498 renal

**Q.** Which results are given for `COc1ccc2c(C)cc(N/N=C/c3ccc(OC)c4ccccc34)nc2c1`?
**A.** TGI (SNB-75 CNS): 42.2 µM; TGI (HOP-62 NSCLC): 34.4 µM; TGI (RPMI-8226 leukemia): 8.64 µM; TGI (T-47D breast): 24.1 µM; TGI (A549 NSCLC): 34.8 µM; TGI (LOX IMVI melanoma): 12.3 µM; TGI (HOP-92 NSCLC): 25.4 µM; TGI (MALME-3M melanoma): 36.3 µM; TGI (SR leukemia): 22.3 µM; TGI (UO-31 renal): 25.6 µM; TGI (NCI-H226 lung): 29.6 µM; TGI (K-562 leukemia): 32.3 µM; TGI (HT29 colon): 32.7 µM; TGI (MOLT-4 leukemia): 52.9 µM; TGI (RXF 393 renal): 39.8 µM; TGI (SW-620 colon): 22.2 µM; TGI (EKVX NSCLC): 35.1 µM; TGI (SF-268 CNS): 32.6 µM; TGI (ACHN renal): 15.8 µM; TGI (NCI/ADR-RES ovarian): 32.7 µM; TGI (SN12C renal): 5.52 µM; TGI (MCF7 breast): 44.6 µM; TGI (HCT-15 colon): 23.4 µM; TGI (OVCAR-3 ovarian): 9.02 µM; TGI (TK-10 renal): 31.8 µM; TGI (SK-MEL-28 melanoma): 31.6 µM; TGI (DU-145 prostate): 16.4 µM; TGI (SNB-19 CNS): 41.9 µM; TGI (OVCAR-4 ovarian): 45.1 µM; TGI (SF-539 CNS): 30.6 µM; TGI (HS 578T breast): 32.8 µM; TGI (MDA-MB-435): 24.1 µM; TGI (HCT-116 colon): 18.1 µM; TGI (MDA-MB-231 breast): 17.4 µM; TGI (NCI-H522 lung): 26.7 µM; TGI (U251 CNS): 13.2 µM; TGI (NCI-H23 lung): 32.8 µM; TGI (786-0 renal): 26.4 µM; TGI (OVCAR-5 ovarian): 29.1 µM; TGI (PC-3 prostate): 34.1 µM; TGI (UACC-62 melanoma): 28.3 µM; TGI (M14 melanoma): 31.9 µM; TGI (KM12 colon): 29.6 µM; TGI (UACC-257 melanoma): 36.9 µM; TGI (HL-60(TB) leukemia): 49.3 µM; TGI (SF-295 CNS): 32 µM; TGI (SK-MEL-5 melanoma): 30.3 µM; TGI (NCI-H460 lung): 41.1 µM; TGI (SK-OV-3 ovarian): 33.8 µM; TGI (SK-MEL-2 melanoma): 37.2 µM; TGI (IGROV1 ovarian): 29.3 µM; TGI (BT-549 breast): 46.2 µM; TGI (CAKI-1 renal): 26.9 µM; TGI (OVCAR-8 ovarian): 39.6 µM; TGI (COLO 205 colon): 42 µM; TGI (CCRF-CEM leukemia): 7.47 µM

**Q.** What does the source list for `CN(C)CCCNC(=O)c1cc(NC(=O)c2cc(NC(=O)CCc3c[nH]c4ccccc34)cn2C)cn1C`?
**A.** GI50 (SNB-75 CNS): > 100 µM; TGI (SNB-75 CNS): > 100 µM; GI50 (RPMI-8226 leukemia): > 100 µM; TGI (RPMI-8226 leukemia): > 100 µM; GI50 (T-47D breast): > 100 µM; TGI (T-47D breast): > 100 µM; GI50 (A549 NSCLC): > 100 µM; TGI (A549 NSCLC): > 100 µM; GI50 (LOX IMVI melanoma): > 100 µM; TGI (LOX IMVI melanoma): > 100 µM; GI50 (HOP-92 NSCLC): 72.8 µM; TGI (HOP-92 NSCLC): > 100 µM; GI50 (MALME-3M melanoma): > 100 µM; TGI (MALME-3M melanoma): > 100 µM; GI50 (UO-31 renal): > 100 µM; TGI (UO-31 renal): > 100 µM; GI50 (NCI-H226 lung): > 100 µM; TGI (NCI-H226 lung): > 100 µM; GI50 (K-562 leukemia): > 100 µM; TGI (K-562 leukemia): > 100 µM; GI50 (HT29 colon): > 100 µM; TGI (HT29 colon): > 100 µM; GI50 (MOLT-4 leukemia): > 100 µM; TGI (MOLT-4 leukemia): > 100 µM; GI50 (RXF 393 renal): > 100 µM; TGI (RXF 393 renal): > 100 µM; GI50 (SW-620 colon): > 100 µM; TGI (SW-620 colon): > 100 µM; GI50 (EKVX NSCLC): > 100 µM; TGI (EKVX NSCLC): > 100 µM; GI50 (SF-268 CNS): > 100 µM; TGI (SF-268 CNS): > 100 µM; GI50 (ACHN renal): > 100 µM; TGI (ACHN renal): > 100 µM; GI50 (NCI/ADR-RES ovarian): > 100 µM; TGI (NCI/ADR-RES ovarian): > 100 µM; GI50 (SN12C renal): > 100 µM; TGI (SN12C renal): > 100 µM; GI50 (MCF7 breast): > 100 µM; TGI (MCF7 breast): > 100 µM; GI50 (HCT-15 colon): > 100 µM; TGI (HCT-15 colon): > 100 µM; GI50 (OVCAR-3 ovarian): > 100 µM; TGI (OVCAR-3 ovarian): > 100 µM; GI50 (TK-10 renal): > 100 µM; TGI (TK-10 renal): > 100 µM; GI50 (SK-MEL-28 melanoma): > 100 µM; TGI (SK-MEL-28 melanoma): > 100 µM; GI50 (DU-145 prostate): > 100 µM; TGI (DU-145 prostate): > 100 µM; GI50 (SNB-19 CNS): > 100 µM; TGI (SNB-19 CNS): > 100 µM; GI50 (OVCAR-4 ovarian): > 100 µM; TGI (OVCAR-4 ovarian): > 100 µM; GI50 (SF-539 CNS): > 100 µM; TGI (SF-539 CNS): > 100 µM; GI50 (HS 578T breast): > 100 µM; TGI (HS 578T breast): > 100 µM; GI50 (MDA-MB-435): > 100 µM; TGI (MDA-MB-435): > 100 µM; GI50 (MDA-MB-231 breast): > 100 µM; TGI (MDA-MB-231 breast): > 100 µM; GI50 (NCI-H522 lung): > 100 µM; TGI (NCI-H522 lung): > 100 µM; GI50 (U251 CNS): > 100 µM; TGI (U251 CNS): > 100 µM; GI50 (NCI-H23 lung): > 100 µM; TGI (NCI-H23 lung): > 100 µM; GI50 (786-0 renal): > 100 µM; TGI (786-0 renal): > 100 µM; GI50 (OVCAR-5 ovarian): > 100 µM; TGI (OVCAR-5 ovarian): > 100 µM; GI50 (PC-3 prostate): > 100 µM; TGI (PC-3 prostate): > 100 µM; GI50 (A498 renal): > 100 µM; TGI (A498 renal): > 100 µM; GI50 (UACC-62 melanoma): > 100 µM; TGI (UACC-62 melanoma): > 100 µM; GI50 (M14 melanoma): > 100 µM; TGI (M14 melanoma): > 100 µM; GI50 (KM12 colon): > 100 µM; TGI (KM12 colon): > 100 µM; GI50 (UACC-257 melanoma): > 100 µM; TGI (UACC-257 melanoma): > 100 µM; GI50 (HL-60(TB) leukemia): > 100 µM; TGI (HL-60(TB) leukemia): > 100 µM; GI50 (SF-295 CNS): > 100 µM; TGI (SF-295 CNS): > 100 µM; GI50 (SK-MEL-5 melanoma): > 100 µM; TGI (SK-MEL-5 melanoma): > 100 µM; GI50 (NCI-H460 lung): > 100 µM; TGI (NCI-H460 lung): > 100 µM; GI50 (SK-OV-3 ovarian): > 100 µM; TGI (SK-OV-3 ovarian): > 100 µM; GI50 (SK-MEL-2 melanoma): > 100 µM; TGI (SK-MEL-2 melanoma): > 100 µM; GI50 (IGROV1 ovarian): > 100 µM; TGI (IGROV1 ovarian): > 100 µM; GI50 (BT-549 breast): > 100 µM; TGI (BT-549 breast): > 100 µM; GI50 (OVCAR-8 ovarian): > 100 µM; TGI (OVCAR-8 ovarian): > 100 µM; GI50 (COLO 205 colon): > 100 µM; TGI (COLO 205 colon): > 100 µM; GI50 (CCRF-CEM leukemia): > 100 µM; TGI (CCRF-CEM leukemia): > 100 µM
